Data set [1] can be described thus: PK study of antifungal nasal spray, plasma level after intranasal dosing. Type of data set: in vivo, Gottingen mini-pigs. As for the experimental part:
Experiments were performed to determine blood levels of Posaconazole formulation after intranasal dosing in Gottingen mini-pigs. A Group of three male and three female mini-pigs (ages from 6 to 9 months) were used for the studies. The vehicle used in the experiments was 5% of PEG-12 GDM in saline solution. The intranasal administration was performed with 35 mL of Luer slip syringes. HPLC-MS analyses were performed on heparinized mini-pig plasma samples obtained typically at 0 hr, 0.08 hr, 1 hr, 2 hr, 4 hr, 12 hr and 24 hr after dosing. The drug was first isolated from plasma with a sample pre-treatment. Acetonitrile were used to remove proteins in samples. An isocratic HPLC-MS method was then used to separate the drug from any potential interference. Drug levels were measured by MS detection with a multiple reaction monitoring (MRM) mode.

Another data set has as its system Aspergillus Flavus. The data set is described as follows: agar dilution in vitro activity test. The data set is classed as cell-based. The note with it: 9 organisms, Kimmig's agar, 25° C.; for MIC: read-out: GMMICS (geometric mean minimum inhibitory concentration). Here is the method:
(§1) Organisms listed in Table 1 were tested according to an agar dilution method: Suspensions of each microorganism were prepared to contain […] colony forming units (cfu)/mL. All drugs were dissolved in a few drops of DMSO then diluted with ethanol—water (1/1, v/v) to make a stock solution of 500 μg/mL. The agar dilution method was performed in a medium of Kimmig's agar (K. A., Merck) −0.5% glycerol [R. A. Fromtling, G. K. Abruzzo and A. Ruiz, Mycopathologia, 106 (1989) 163-166]. Plates of Kimmig's agar containing serial dilutions (25 to 0.01 μg/mL) of the drugs were inoculated with 10 μL of the fungal inocula and incubated at 25° C. […] for yeasts and up to 5 days for filamentous fungi. Following incubation, GMMICs (geometric mean minimum inhibitory concentration μg/mL) were determined. In the table POCZ indicates posaconazole, ITRZ indicates itraconazole, EQUZ indicates Equaconazole, and FLUZ indicates fluconazole [Patterson, T. F., S. G. Revankar, W. R. Kirkpatrick, O. Dib, A. W. Fothergill, S. W. Redding, D. A. Sutton, and M. G. Rinaldi, J. Clin. Microbiol. 34 (1996) 1794-1797].

The test system of a further data set is Microsporum canis. As to the kind of experiment: agar dilution in vitro activity test. The data set is classed as cell-based. The note with it: 6 organisms, Kimmig's agar, 25° C.; for MIC: read-out: GMMICS (geometric mean minimum inhibitory concentration). Here is the method:
as §1
(In agar dilution the substance is mixed into plates at graded concentrations.)

The subject of the next data set is Trichophyton rubrum. The data set is described as follows: agar dilution in vitro activity test. Type of data set: cell-based. As to conditions: 17 organisms, Kimmig's agar, 25° C.; for MIC: read-out: GMMICS (geometric mean minimum inhibitory concentration). Here is the method: as §1
For a further data set, the system named is Cryptococcus neoformans. As to the kind of experiment: agar dilution in vitro activity test. The data set is classed as cell-based. The note with it: 10 organisms, Kimmig's agar, 25° C.; for MIC: read-out: GMMICS (geometric mean minimum inhibitory concentration). As for the experimental part: as §1
In a further data set the test system is Candida Krusei. As to the kind of experiment: agar dilution in vitro activity test. The data set is classed as cell-based. As to conditions: 22 organisms, Kimmig's agar, 25° C.; for MIC: Pichia kudriavzevii, read-out: GMMICS (geometric mean minimum inhibitory concentration). Here is the method: as §1
The test system of data set [2] is Ergosterol Biosynthesis, Candida albicans_C286. The data set is described as follows: inhibition of ergosterol biosynthesis. The data set is classed as cell-based, Candida albicans. The note with it: Candida albicans_C286, RPMI-1640, 30° C., 48 h. As for the experimental part:
(§2) Compounds of the invention were tested for their ability to inhibit ergosterol biosynthesis. Testing was performed in 96-well round-bottom microtitration plates (Table 2). Cell suspensions were prepared in RPMI-1640 medium and were adjusted to give a final inoculum concentration of 0.5×10^3 to 2.5×10^3 cells/ml. The plates were incubated incubated at 30° C. for 48 h before growth was assessed. The MIC of each compounds was defined as the lowest concentration at which there was 80% inhibition of growth compared with that in a drug-free control [O. N. Breivik and J. L. Owades, Agric. Food Chem., 5 (1957) 360-363; T. F. Patterson, S. G. Revankar, W. R. Kirkpatrick, O. Dib, A. W. Fothergill, S. W. Redding, D. A. Sutton and M. G. Rinaldi, J. Clin. Microbiol., 34 (1996) 1794-1797]. Ergosterol content was calculated as a percentage of the wet weight of the cell [National Committee for Clinical Laboratory Standards. 1997. Reference method for broth dilution antifungal susceptibility testing of yeasts, Approved standard. Document M27-A, National Committee for Clinical Laboratory Standards, Wayne, Pa.].

The subject of data set [3] is Ergosterol Biosynthesis, Aspergillus fumigatus_ND 158. The data set is described as follows: inhibition of ergosterol biosynthesis. The data set is classed as cell-based, Aspergillus fumigatus. As to conditions: Aspergillus fumigatus_ND 158, RPMI-1640, 30° C., 48 h. As for the experimental part: as §2

pIC50: −log10 of the molar value. In brackets after ≈: the same amount, converted by molar mass. Several values for one entry are separate records, joined by “and”; a condition that tells them apart may be missing. Equal values may be shown once.

In general, pIC50 refers to the negative decadic logarithm of the IC50, by convention in mol/L. A low value points to a high IC50.

For `CC[C@@H]([C@H](C)O)n1ncn(-c2ccc(N3CCN(c4ccc(OC[C@@H]5CO[C@@](Cn6cncn6)(c6ccc(F)cc6F)C5)cc4)CC3)cc2)c1=O` [POCZ, posaconazole], the “Posaconazole Level in Mini-pig Plasma” value was 1.23 ng/mL and 1.39 ng/mL and 1.21 ng/mL in data set [1] (0.08 hour after intranasal dosing, 5% PEG-12 GDM in saline, individual animals, female mini-pigs); 1.74 ng/mL and 1.56 ng/mL in data set [1] (0.08 hour after intranasal dosing, 5% PEG-12 GDM in saline, individual animals, male mini-pigs); 2.06 ng/mL and 1.86 ng/mL and 1.26 ng/mL in data set [1] (1 hour after intranasal dosing, 5% PEG-12 GDM in saline, individual animals, female mini-pigs); 1.24 ng/mL and 1.26 ng/mL in data set [1] (1 hour after intranasal dosing, 5% PEG-12 GDM in saline, individual animals, male mini-pigs); 1.28 ng/mL and 1.17 ng/mL and 1.56 ng/mL in data set [1] (4 hour after intranasal dosing, 5% PEG-12 GDM in saline, individual animals, female mini-pigs); 1.42 ng/mL and 1.46 ng/mL in data set [1] (4 hour after intranasal dosing, 5% PEG-12 GDM in saline, individual animals, male mini-pigs). Further, the “Posaconazole Level in Mini-pig Plasma” value was 2.03 ng/mL and 2.44 ng/mL and 2.35 ng/mL in data set [1] (12 hour after intranasal dosing, 5% PEG-12 GDM in saline, individual animals, female mini-pigs); 2.41 ng/mL and 1.93 ng/mL in data set [1] (12 hour after intranasal dosing, 5% PEG-12 GDM in saline, individual animals, male mini-pigs); 1.17 ng/mL and 2.04 ng/mL and 1.46 ng/mL in data set [1] (24 hour after intranasal dosing, 5% PEG-12 GDM in saline, individual animals, female mini-pigs); 1.86 ng/mL and 1.66 ng/mL in data set [1] (24 hour after intranasal dosing, 5% PEG-12 GDM in saline, individual animals, male mini-pigs). Further, in data set [1] (both sexes, Gottingen, minipig, plasma, other: intranasal, 0.08 hour after intranasal dosing, 5% PEG-12 GDM in saline, individual animals, read-out: Posaconazole Level in Mini-pig Plasma), the concentration at 0.08 h was 1.35 ng/mL. In addition, the concentration at 1 h in data set [1] (both sexes, Gottingen, minipig, plasma, other: intranasal, 1 hour after intranasal dosing, 5% PEG-12 GDM in saline, individual animals, read-out: Posaconazole Level in Mini-pig Plasma) came to 1.62 ng/mL. The concentration at 4 h in data set [1] (both sexes, Gottingen, minipig, plasma, other: intranasal, 4 hour after intranasal dosing, 5% PEG-12 GDM in saline, individual animals, read-out: Posaconazole Level in Mini-pig Plasma) was determined as 1.26 ng/mL. In addition, in data set [1] (both sexes, Gottingen, minipig, plasma, other: intranasal, 12 hour after intranasal dosing, 5% PEG-12 GDM in saline, individual animals, read-out: Posaconazole Level in Mini-pig Plasma), the concentration at 12 h worked out at 1.96 ng/mL. Also, the concentration at 24 h in data set [1] (both sexes, Gottingen, minipig, plasma, other: intranasal, 24 hour after intranasal dosing, 5% PEG-12 GDM in saline, individual animals, read-out: Posaconazole Level in Mini-pig Plasma) worked out at 1.86 ng/mL. The “amount detected in mini-pig plasma after dosing (in words)” value in data set [1] (intranasal dosing with formulated Posaconazole) is reported as “Only trace amounts”. Besides, the MIC in the data set on Aspergillus Flavus was found to be 0.12 µg/mL (≈ 0.171 µM); in the data set on Microsporum canis it was 0.5 µg/mL (≈ 0.713 µM); in the data set on Trichophyton rubrum, 1.2 µg/mL (≈ 1.71 µM); in the data set on Cryptococcus neoformans, 0.24 µg/mL (≈ 0.342 µM); in the data set with Candida Krusei it was 0.21 µg/mL (≈ 0.3 µM).

As for `OC(Cn1cncn1)(Cn1cncn1)c1ccc(F)cc1F` [FLUZ, fluconazole], the MIC in the data set with Aspergillus Flavus is greater than 235 µg/mL; in the data set on Microsporum canis, 151 µg/mL (≈ 493 µM); in the data set on Trichophyton rubrum, 105 µg/mL (≈ 343 µM); in the data set on Cryptococcus neoformans, 45 µg/mL (≈ 147 µM); in the data set on Candida Krusei it was 65 µg/mL (≈ 212 µM).

Take Equaconazole [EQUZ]: the pIC50 in data set [2] was 7.51; in data set [3], 8.01. Further, the “GMMICS (geometric mean minimum inhibitory concentration)” value in the data set on Aspergillus Flavus was determined as 0.09 µg/mL; in the data set with Microsporum canis it was 0.35 µg/mL; with Trichophyton rubrum, 0.10 µg/mL; in the data set on Cryptococcus neoformans it was 0.25 µg/mL; in the data set with Candida Krusei it was 0.15 µg/mL.

For `CCC(C)n1ncn(-c2ccc(N3CCN(c4ccc(OCC5COC(Cn6cncn6)(c6ccc(Cl)cc6Cl)O5)cc4)CC3)cc2)c1=O` (stereo not drawn) [ITRZ, itraconazole], in data set [2], the pIC50 was 7.41. The MIC in the data set on Aspergillus Flavus turned out to be 0.35 µg/mL (≈ 0.496 µM); with Microsporum canis it was 1.2 µg/mL (≈ 1.7 µM); in the data set on Trichophyton rubrum, 3.1 µg/mL (≈ 4.39 µM); in the data set with Cryptococcus neoformans, 0.49 µg/mL (≈ 0.694 µM); in the data set on Candida Krusei it was 0.6 µg/mL (≈ 0.85 µM).

(Values after patent US20130261131A1, “PHARMACEUTICAL COMPOSITIONS AND MENTODS FOR TREATMENT OF FUNGAL INFECTIONS” (priority 2012, published 2013).)
